# Source: US9732322B2, “Compositions for mesoderm derived ISL1+ multipotent cells (IMPs), epicardial progenitor cells (EPCs) and multipotent C56C cells (C56Cs) and methods of producing and using same” (UNIVERSITY OF GEORGIA RESEARCH FOUNDATION, INC., priority 2008, dated 2017)
# B1: BMP4: bone morphogenic protein 4 (protein, UniProt P12644 293-408, looked up)
# Bone morphogenetic protein 4: SPKHHSQRARKKNKNCRRHSLYVDFSDVGWNDWIVAPPGYQAFYCHGDCPFPLADHLNSTNHAIVQTLVNSVNSSIPKACCVPTELSAISMLYLDEYDKVVLKNYQEMVVEGCGCR
# B2: Wnt3a: wingless (Wnt) protein (protein, UniProt P56704 19-352, looked up)
# Protein Wnt-3a: SYPIWWSLAVGPQYSSLGSQPILCASIPGLVPKQLRFCRNYVEIMPSVAEGIKIGIQECQHQFRGRRWNCTTVHDSLAIFGPVLDKATRESAFVHAIASAGVAFAVTRSCAEGTAAICGCSSRHQGSPGKGWKWGGCSEDIEFGGMVSREFADARENRPDARSAMNRHNNEAGRQAIASHMHLKCKCHGLSGSCEVKTCWWSQPDFRAIGDFLKDKYDSASEMVVEKHRESRGWVETLRPRYTYFKVPTERDLVYYEASPNFCEPNPETGSFGTRDRTCNVSSHGIDGCDLLCCGRGHNARAERRREKCRCVFHWCCYVSCQECTRVYDVHTCK
# B3: Dkk1: Wnt antagonist Dkk1 (protein, UniProt O94907 32-266, looked up)
# Dickkopf-related protein 1: TLNSVLNSNAIKNLPPPLGGAAGHPGSAVSAAPGILYPGGNKYQTIDNYQPYPCAEDEECGTDEYCASPTRGGDAGVQICLACRKRRKRCMRHAMCCPGNYCKNGICVSSDQNHFRGEIEETITESFGNDHSTLDGYSRRTTLSSKMYHTKGQEGSVCLRSSDCASGLCCARHFWSKICKPVLKEGQVCTKHRRKGSHGLEIFQRCYCGEGLSCRIQKDHHQASNSSRLHTCQRH
# Key:
# [1] = target: T1, CXCR4 receptor (Homo sapiens, UniProt P61073); experiment: Boyden chamber migration assay of C56C cells; format: cell-based
# T1 construct: endogenous in cells; host or cells: C56C cells (CXCR4+ CD56+), differentiated from MMCs derived from human pluripotent stem cells
# Protocol: FIG. 61. To investigate the mechanisms by which C56Cs migrate towards ischemic/damaged tissue we assayed these cells in a Boyden chamber assay. 300,000 C56C cells were seeded in the upper chamber of a Boyden chamber.
# To investigate the mechanisms by which C56Cs migrate towards ischemic/damaged tissue we assayed these cells in a Boyden chamber assay. 300,000 C56C cells were seeded in the upper chamber of a Boyden chamber.
# [2] = system: Isl1+ IMP (Spl-m) cells; experiment: Stage 2 differentiation of Isl1+ IMPs/Spl-m to Wt1+ epicardial progenitor (PE-like) cells; format: cell-based, human; conditions: for Erk activation in Isl1+ Spl-m: immunoblot, phospho-Erk1,2
# Protocol: hESC/hFib2-iPS4 hiPSCs grown in StemPro defined media/defined media were differentiated into IMPs (as described above and elsewhere). At day 4, IMP cell stage, the defined media was supplemented with BMP4 (50 ng/ml, range about 2-100 ng/ml, R&D Systems), Wnt3a (25 ng/ml, range about 1-100+ng/ml, R&D Systems) and all-trans retinoic acid (4 μM, range about 0.25-25 μM Sigma), media changed every 2 (1-4 days) days, for about 10-16 days (about 7-25 days) (FIG. 39). The expression of Wt-1, Tbx18, Raldh2 and Tcf21 (epicardin) were confirmed by Q-PCR (FIGS. 40, 42) and Wt-1 by immunofluorescence (FIG. 41). This method typically gives cultures that are >80% positive for Wt1.
# (§1) WA01, WA07, WA09, BG01 and BG02 hESCs and Fib-iPS4 hIPSCs^28 were adapted from mouse embryo fibroblast feeder-based culture conditions to feeder-free growth in chemically defined media (CDM) using single cell suspensions^50. Briefly, CDM is composed of DMEM/F12 (Mediatech), 2% probumin (Bovine Serum Albumin fraction V) biotech grade (Millipore), 1× nonessential amino acids, 50 U/mL penicillin, 50 μg/mL streptomycin, 1× trace elements A, B, C (all from Mediatech), 10 μg/mL transferrin, 0.1 mM […] (Gibco), 50 μg/mL ascorbic acid (Sigma), 8 ng/mL bFGF (Invitrogen), 200 ng/mL LR-IGF (Sigma), 10 ng/mL Activin A (R and D Systems) and 10 ng/mL […] (Peprotech). Cells were passaged every 4-5 d using Accutase (Innovative Cell Technologies) to form a single cell suspension and then plated onto plates coated with 1:200 Geltrex (Invitrogen) at a cell density of 7.5×10^4 cells/cm^2 at 37° C. in 5% CO2. Media was changed every 24 h. To differentiate hESC in Stage 1 (FIG. 62), cells were plated at a density of 5.1×10^4 cells/cm^2 into CDM containing 25 ng/mL rmWnt3a and 100 ng/mL rhBMP4 (R&D Systems). Cells were cultured at 37° C. in 5% CO2 and media changed every 24 h for 4-6 d. CDM for Stage 2 of differentiation was supplemented with 25 ng/mL rmWnt3a, 50 ng/mL rhBMP4 with either 100 ng/ml Fgf2 or 4 μM all-trans retinoic acid (Sigma), changing media every 48 h for 10-16 d. For Stage 3 differentiation, Stage 2 cells were passaged at day 16 into CDM without Activin A, supplemented with 10 ng/mL rhVEGF-A165 (R&D Systems). All bright field images were acquired on a Leica DMIL microscope.
# Progenitor cells of the coronary vasculature are believed to reside in the PE and after forming the epicardium, seed the myocardium for future vessel formation. Many unanswered questions remain as to the characteristics of these progenitor cells but clearly, a better understanding of PE development will provide significant insight into this question. Lineage tracing studies in vivo indicate that PE and epicardium forms from an Isl1^+ Nkx2.5^+ progenitor^6, 18, 29. […]
# [3] = system: hESC-derived Wt1+ PE cells (EPCs); experiment: Stage 3 differentiation of Wt1+ EPC/PE cells to smooth muscle and endothelial cells, immunostaining; format: cell-based, human; conditions: VEGF 10 ng/ml, 10 days
# Protocol: WA01, WA07, WA09, BG01 and BG02 hESCs and Fib-iPS4 hIPSCs^28 were adapted from mouse embryo fibroblast feeder-based culture conditions to feeder-free growth in chemically defined media (CDM) using single cell suspensions^50. Briefly, CDM is composed of DMEM/F12 (Mediatech), 2% probumin (Bovine Serum Albumin fraction V) biotech grade (Millipore), 1× nonessential amino acids, 50 U/mL penicillin, 50 μg/mL streptomycin, 1× trace elements A, B, C (all from Mediatech), 10 μg/mL transferrin, 0.1 mM 3-mercaptoethanol (Gibco), 50 μg/mL ascorbic acid (Sigma), 8 ng/mL bFGF (Invitrogen), 200 ng/mL LR-IGF (Sigma), 10 ng/mL Activin A (R and D Systems) and 10 ng/mL Heregulin 13 (Peprotech). Cells were passaged every 4-5 d using Accutase (Innovative Cell Technologies) to form a single cell suspension and then plated onto plates coated with 1:200 Geltrex (Invitrogen) at a cell density of 7.5×10^4 cells/cm^2 at 37° C. in 5% CO2. Media was changed every 24 h. To differentiate hESC in Stage 1 (FIG. 62), cells were plated at a density of 5.1×10^4 cells/cm^2 into CDM containing 25 ng/mL rmWnt3a and 100 ng/mL rhBMP4 (R&D Systems). Cells were cultured at 37° C. in 5% CO2 and media changed every 24 h for 4-6 d. CDM for Stage 2 of differentiation was supplemented with 25 ng/mL rmWnt3a, 50 ng/mL rhBMP4 with either 100 ng/ml Fgf2 or 4 μM all-trans retinoic acid (Sigma), changing media every 48 h for 10-16 d. […]
# [4] = system: WA09 hESCs; experiment: Stage 1 differentiation of WA09 hESCs to Isl1+ splanchnic mesoderm; Q-PCR, immunostaining, flow cytometry; format: cell-based, human; conditions: for differentiation / gene expression changes with single factor alone: data not shown
# Protocol: as §1, with “To differentiate hESC in Stage 1 (FIG. 62), cells were plated at a density of 5.1×10^4 cells/cm^2 into CDM containing 25 ng/mL rmWnt3a and 100 ng/mL rhBMP4 (R&D Systems).” left out
# Cells were collected as single cell suspensions following harvesting with Accutase and then analyzed using a Cyan flow cytometer (Dako). Cells were blocked with species-specific serum for 30 min followed by blocking with CD16/32 (eBiosciences) for a further 15 min then, with specific antibodies shown in FIG. 81, Table 4. Immunofluorescence was performed on 4% paraformaldehyde-fixed cells in the presence of 10% donkey serum and 0.25% Triton X100 followed by visualization using 2.5% donkey serum in PBS with fluorescent conjugated secondary antibodies. DAPI (Sigma) was used to counterstain nuclei. […]
molecule,measurement,setting,value
SDF1: SDF1 cytokine,migration of C56C cells towards cytokine in lower chamber,"[1]; 300,000 C56C cells in upper chamber",responsive and migrate towards
c1cc(CN2CCCNCCNCCCNCC2)ccc1CN1CCCNCCNCCCNCC1 [AMD3100],migration of C56C cells towards SDF1,[1]; antagonist added,blocked
Fgf2: fibroblast growth factor 2,"transcripts expressed in PE/epicardium (Wt1, Raldh2, Tbx18, Tbx5)",[2]; Fgf2 100 ng/ml after 4 days of Wnt/BMP,dramatic increases
same,Erk activation in Isl1+ Spl-m,[2],activated Erk
"CC1=C(/C=C/C(C)=C/C=C/C(C)=C/C(=O)O)C(C)(C)CCC1 [RA, All-trans retinoic acid, reference compound]","treated cells expressing Wt1, Raldh2 and Tbx20","[2]; RA 4 μM with Wnt3a and BMP4, immunofluorescence",More than 90%
same,Erk activation in Isl1+ Spl-m,[2],activated Erk
VEGF,cells positive for CD31 and VE-cadherin (endothelial cells),[3],10-20%
same,cells positive for SMA and calponin (smooth muscle cells),[3],80-90%
B1,differentiation / gene expression changes with single factor alone,[4],promoted differentiation
B2,differentiation / gene expression changes with single factor alone,[4],None of the gene expression changes
B3,BMP4-dependent differentiation of hESCs without exogenous Wnt3a,[4]; Dkk1 150 ng/ml with BMP4 50 ng/ml,blocked
